Columns and labels:
Assay type in all cases: in vivo
[1] = system: AMARE (Amaranthus retroflexus); experiment: Pre-emergence herbicidal action against harmful plants; settings: 504 h, dosage 320 g/ha
Description: (§1) 1. Pre-Emergence Herbicidal Action Against Harmful Plants
(§2) Seeds of monocotyledonous and dicotyledonous weed plants and crop plants are laid out in wood-fiber pots in sandy loam and covered with soil. The compounds of the invention and, for comparative purposes, the compounds known from the prior art, formulated in the form of wettable powders (WP) or as emulsion concentrates (EC), are then applied to the surface of the covering soil as aqueous suspension or emulsion at a water application rate equating to 600 to 800 I/ha with addition of 0.2% of wetting agent. After the treatment, the pots are placed in a greenhouse and kept under good growth conditions for the trial plants. The damage to the test plants is scored visually after a test period of 3 weeks by comparison with untreated controls (herbicidal activity in percent (%): 100% activity=the plants have died, 0% activity=like control plants).

[2] = system: ALOMY (Alopecurus myosuroides); experiment: as above; settings: dosage 320 g/ha, scored visually after 3 weeks (Table C)
Description: as §1, §2

[3] = system: POLCO (Polygonum convolvulus); experiment: as above; settings: dosage 320 g/ha
Description: as §1, §2

[4] = system: CYPES (Cyperus serotinus); experiment: as above; settings: dosage 320 g/ha
Description: as §1, §2

STEME (Stellaria media) = experiment: Post-emergence herbicidal action against harmful plants; settings: dosage 80 g/ha, assessed visually after about 3 weeks (Table K)
Description: (§3) 2. Post-Emergence Herbicidal Action Against Harmful Plants
(§4) Seeds of monocotyledonous and dicotyledonous weed and crop plants are laid out in sandy loam in wood-fiber pots, covered with soil and cultivated in a greenhouse under good growth conditions. 2 to 3 weeks after sowing, the test plants are treated at the one-leaf stage. The compounds of the invention, formulated in the form of wettable powders (WP) or as emulsion concentrates (EC), are then sprayed onto the green parts of the plants in the form of an aqueous suspension or emulsion at a water application rate equating to 600 to 800 I/ha, with addition of 0.2% wetting agent. After the test plants have been left to stand in the greenhouse under optimal growth conditions for about 3 weeks, the action of the preparations is assessed visually in comparison to untreated controls (herbicidal action in percent (%): 100% activity=the plants have died, 0% activity=like control plants).

[5] = system: MATIN (Matricaria inodora); experiment: as above; settings: dosage 80 g/ha
Description: as §3, §4

[6] = system: MATIN (Matricaria inodora); experiment: Pre-emergence herbicidal action against harmful plants; settings: dosage 320 g/ha, scored visually after 3 weeks (Table F)
Description: as §1, §2

[7] = system: LOLMU (Lolium multiflorum); experiment: as above; settings: dosage 320 g/ha
Description: as §1, §2

AVEFA (Avena fatua) = experiment: as above; settings: dosage 320 g/ha, scored visually after 3 weeks vs untreated controls (100% = plants have died, 0% = like control plants)
Description: as §1, §2

VERPE (Veronica persica) = experiment: as above; settings: dosage 320 g/ha, scored visually after 3 weeks (Table E)
Description: as §1, §2

[8] = system: PHBPU (Pharbitis purpureum); experiment: as above; settings: dosage 320 g/ha, scored visually after 3 weeks (Table I)
Description: as §1, §2

[9] = system: POLCO (Polygonum convolvulus); experiment: Post-emergence herbicidal action against harmful plants; settings: dosage 80 g/ha, assessed visually after about 3 weeks (Table L)
Description: as §3, §4

[10] = scored visually after 3 weeks (Table C)
[11] = scored visually after 3 weeks vs untreated controls (100% = plants have died, 0% = like control plants)
[12] = assessed visually after about 3 weeks (Table K)
[13] = scored visually after 3 weeks (Table F)
[14] = scored visually after 3 weeks (Table B)
[15] = scored visually after 3 weeks (Table E)
[16] = scored visually after 3 weeks (Table I)
[17] = assessed visually after about 3 weeks (Table L)

CSc1c(C2OCCO2)ccc(C(=O)Nc2nnnn2C)c1C [drawing 28]
pest or weed control at 320 g/ha [1, 10]: 0%
Activity against ALOMY [2]: 0%

CSc1c(C2CC2)ccc(C(=O)Nc2nnnn2C)c1C [drawing 18]
Activity against POLCO [3, 11]: 90%
Activity against CYPES [4, 11]: 90%

CSc1c(C2CC2)ccc(C(=O)Nc2ncc(C)o2)c1C
Activity against STEME (STEME (Stellaria media)): 90%
Activity against MATIN [5, 12]: 80%

CSc1c(Br)ccc(C(=O)Nc2nnc(C)o2)c1C
Activity against STEME (STEME (Stellaria media)): 60%
Activity against MATIN [5, 12]: 40%

COSc1c(C2CC2)ccc(C(=O)Nc2ncnn2C)c1C
pest or weed control at 320 g/ha [1, 13]: 90%
Activity against MATIN [6]: 80%

CCn1nnnc1NC(=O)c1ccc(C)c(SC)c1C [reference compound]
Activity against LOLMU [7, 11]: 30%
Activity against AVEFA (AVEFA (Avena fatua)): 60%

COSc1c(C2CC2)ccc(C(=O)Nc2nnnn2C)c1C
pest or weed control at 320 g/ha [1, 10]: 100%
Activity against ALOMY [2]: 90%

CSc1c(C2OCCO2)ccc(C(=O)Nc2nnnn2C)c1C [drawing 24]
Activity against POLCO [3, 14]: 30%
Activity against CYPES [4, 14]: 0%

COSc1c(Cl)ccc(C(=O)Nc2ncnn2C)c1C
pest or weed control at 320 g/ha [1, 13]: 70%
Activity against MATIN [6]: 30%

COSc1c(C2OCCO2)ccc(C(=O)Nc2ncnn2C)c1C
pest or weed control at 320 g/ha [1, 13]: 20%
Activity against MATIN [6]: 0%

CSc1c(C2OCCO2)ccc(C(=O)Nc2ncnn2C)c1C
Activity against VERPE (VERPE (Veronica persica)): 0%
pest or weed control at 320 g/ha [1, 15]: 0%

CSc1c(N(C)C)ccc(C(=O)Nc2nnnn2C)c1C
Activity against POLCO [3, 14]: 0%
Activity against CYPES [4, 14]: 30%

CSc1c(C=O)ccc(C(=O)Nc2nnnn2C)c1C [drawing 29]
pest or weed control at 320 g/ha [1, 10]: 0%
Activity against ALOMY [2]: 0%

CSc1c(Cl)ccc(C(=O)Nc2nnc(C)o2)c1C
Activity against STEME (STEME (Stellaria media)): 70%
Activity against MATIN [5, 12]: 60%

CCn1nnnc1NC(=O)c1ccc(C2CC2)c(SOC)c1C
Activity against LOLMU [7, 16]: 100%
Activity against PHBPU [8]: 100%

CSc1c(C2CC2)ccc(C(=O)Nc2ncnn2C)c1C
Activity against VERPE (VERPE (Veronica persica)): 90%
pest or weed control at 320 g/ha [1, 15]: 100%

COSc1c(C=O)ccc(C(=O)Nc2ncnn2C)c1C
pest or weed control at 320 g/ha [1, 13]: 40%
Activity against MATIN [6]: 0%

CSc1c(I)ccc(C(=O)Nc2ncnn2C)c1C
Activity against VERPE (VERPE (Veronica persica)): 0%
pest or weed control at 320 g/ha [1, 15]: 60%

CSc1c(C=O)ccc(C(=O)Nc2ncnn2C)c1C
Activity against VERPE (VERPE (Veronica persica)): 0%
pest or weed control at 320 g/ha [1, 15]: 30%

CSc1c(C(F)(F)F)ccc(C(=O)Nc2nnc(C)o2)c1C
Activity against POLCO [9]: 0%
Activity against MATIN [5, 17]: 60%

CSc1c(C2CC2)ccc(C(=O)Nc2nnnn2C)c1C [drawing 21]
Activity against POLCO [3, 14]: 90%
Activity against CYPES [4, 14]: 90%

CSc1c(C=O)ccc(C(=O)Nc2nnnn2C)c1C [drawing 25]
Activity against POLCO [3, 14]: 0%
Activity against CYPES [4, 14]: 0%

CSc1cccc(C(=O)Nc2nnnn2C)c1C [drawing 27]
pest or weed control at 320 g/ha [1, 10]: 20%
Activity against ALOMY [2]: 20%

CSc1c(C#N)ccc(C(=O)Nc2ncnn2C)c1C
Activity against VERPE (VERPE (Veronica persica)): 70%
pest or weed control at 320 g/ha [1, 15]: 80%

CSc1c(I)ccc(C(=O)Nc2nnc(C)o2)c1C
Activity against POLCO [9]: 20%
Activity against MATIN [5, 17]: 60%

COSc1c(C#N)ccc(C(=O)Nc2ncnn2C)c1C
pest or weed control at 320 g/ha [1, 13]: 60%
Activity against MATIN [6]: 0%

CCn1nnnc1NC(=O)c1ccc(C2CC2)c(SC)c1C
Activity against LOLMU [7, 11]: 90%
Activity against AVEFA (AVEFA (Avena fatua)): 100%

CSc1c(C2CC2)ccc(C(=O)Nc2nnc(C)o2)c1C
Activity against POLCO [9]: 60%
Activity against MATIN [5, 17]: 80%

CCn1nnnc1NC(=O)c1ccc(C)c(SOC)c1C
Activity against LOLMU [7, 16]: 30%
Activity against PHBPU [8]: 60%

CSc1c(Br)ccc(C(=O)Nc2nnnn2C)c1C [reference compound]
Activity against POLCO [3, 11]: 70%
Activity against CYPES [4, 11]: 0%

CSc1c(I)ccc(C(=O)Nc2nnnn2C)c1C
Activity against POLCO [3, 14]: 20%
Activity against CYPES [4, 14]: 0%

CSc1cccc(C(=O)Nc2nnnn2C)c1C [drawing 19, reference compound]
Activity against POLCO [3, 11]: 0%
Activity against CYPES [4, 11]: 30%
